Literature values in patent US11497761B2, “Compositions for the treatment of metastatic cancer” (priority 2019, dated 2022).

How the values were obtained:
[1] = Kato et al. 1971; cited from earlier work
[2] = test system: Ehrlich ascites tumor cells; conditions: in vitro, Kato et al. 1971; cited from earlier work
PGC-1α = conditions: cultured C2C12 myotubes; cited from earlier work

Molecule | anticancer activity [2] | also measured
CCCCCCCC/C=C\CCCCCCCC(=O)O [octadecenoic, octadecenoic acid] | – | solubility [1]: poorly soluble
octadecadienoic acid | most active | –
CCCCCCCCCCCCCCCC(=O)O [Hexadecanoic, Hexadecanoic acid] | most active | –
CCCCCCCCCCCC(=O)O [lauric acid, dodecanoic acid] | – | expression of PGC-1α (PGC-1α): did not alter expression
lauric sucrose ester | only weak activity | –
CCCCCCCCCCCCCCCCCC(=O)O [octadeconoic, octadeconoic acid] | most active | –
